This note sets out measurements from US6472526B1, “Imidazole derivatives having an inhibitory activity for farnesyl transferase and process for preparation thereof” (LG Chemical Ltd., priority 1997, dated 2002).

SMILES strings stand for the structures.

The target of experiment [1] is T1, Ras farnesyl transferase (Homo sapiens, UniProt P49354+P49356).
T1 construct: made in house
In words: In vitro inhibitory activity for Ras farnesyl transferase, H-Ras substrate. The experiment is classed as biochemical. To be noted: recombinant farnesyl transferase 4.5 nM, Ras substrate protein 1.5 μM, tritium-farnesylpyrophosphate 0.15 μM, 30 minutes at 37° C.; read-out: H-Ras IC50.

Experiment [2] addresses T1, Ras farnesyl transferase. Description: In vitro inhibitory activity for Ras farnesyl transferase, K-Ras substrate. It counts as biochemical. Particulars: in vitro farnesyl transferase assay, K-Ras; read-out: K-Ras IC50.
Experiment [3] has as its target T2, Ras farnesyl transferase (Rattus norvegicus, UniProt Q02293+Q04631).
T2 construct: endogenous in cells; host or cells: Rat2 fibroblasts transformed with H-Ras or with an H-Ras/K-Ras C-terminus fusion
In words: In vivo (cellular) inhibitory activity for Ras farnesyl transferase, Rat2 cell line which expresses C-Harvey-Ras protein. To be noted: Rat2 cell line expressing C-Harvey-Ras; concentration inhibiting 50% of farnesyl bonding of Ras protein; read-out: H-Ras CIC50. It counts as cell-based. In a few lines:
(§1)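 Transformed Rat2 fibroblasts (H-Ras or H-Ras/K-Ras polybasic-tail fusion) treated with compound in 1% DMSO; after 4 h labelled with [35S]methionine 150 μCi/ml for 20 h. Lysates immunoprecipitated with anti-Ras Y13-259, resolved by 13.5% SDS-PAGE and autoradiography; CIC50 = concentration inhibiting 50% of Ras farnesylation from band intensities.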

Experiment [4] deals with T2, Ras farnesyl transferase. In words: In vivo (cellular) inhibitory activity for Ras farnesyl transferase, Rat2 cell line transformed with fused protein of H-Ras substituted with polybasic lysine domain at C-terminus of K-Ras. The experiment is classed as cell-based. Particulars: Rat2 cell line transformed with H-Ras fused with polybasic lysine domain of K-Ras C-terminus; concentration inhibiting 50% of farnesyl bonding; read-out: K-Ras CIC50. In a few lines: as §1

In the case of `COc1ccc(CCn2cncc2Cn2cc(C(=O)N3CCN(C)CC3)c(-c3cccc4ccccc34)c2)cc1` [Compound 20, 1-[1-(4-Methoxy)phenethyl-1H-imidazol-5-yl]methyl-3-[4-methylpiperazin-1-yl]carbonyl-4-(naphthalen-1-yl)-1H-pyrrole], the IC50 on Ras farnesyl transferase [1] was 1 nM; at Ras farnesyl transferase [2] it was 2 nM; at Ras farnesyl transferase [3] it was 20 nM; at Ras farnesyl transferase [4] it was 10000 to 50000 nM.

As to `COCCN(C)C(=O)c1cn(Cc2cncn2CCc2ccccc2F)cc1-c1cccc2ccccc12` [Compound 21, 1-[1-(2-Fluoro)phenethyl-1H-imidazol-5-yl]methyl-3-[N-(2-methoxyethyl)-N-methyl]carbamoyl-4-(naphthalen-1-yl)-1H-pyrrole], the IC50 at Ras farnesyl transferase [1] was 1 nM; on Ras farnesyl transferase [2], 1 nM; on Ras farnesyl transferase [3], 21 nM; at Ras farnesyl transferase [4], 10000 to 50000 nM.

Take `CN1CCN(C(=O)c2cn(Cc3cncn3CCc3ccccc3F)cc2-c2cccc3ccccc23)CC1` [Compound 22, 1-[1-(2-Fluoro)phenethyl-1H-imidazol-5-yl]methyl-3-[4-methylpiperazin-1-yl]carbonyl-4-(naphthalen-1-yl)-1H-pyrrole]: the IC50 on Ras farnesyl transferase [1] is 1 nM; at Ras farnesyl transferase [2], 2 nM; at Ras farnesyl transferase [3] it was 20 nM; on Ras farnesyl transferase [4] it was 10000 to 50000 nM.

Turning to `COCCN(C)C(=O)c1cn(Cc2cncn2CCc2ccccc2Cl)cc1-c1cccc2ccccc12` [Compound 23, 1-[1-(2-Chloro)phenethyl-1H-imidazol-5-yl]methyl-3-[N-(2-methoxyethyl)-N-methyl]carbamoyl-4-(naphthalen-1-yl)-1H-pyrrole], the IC50 on Ras farnesyl transferase [1] is 2 nM; at Ras farnesyl transferase [2] it was 2 nM; at Ras farnesyl transferase [3] it was 23 nM; on Ras farnesyl transferase [4], 10000 to 50000 nM.

For `CN1CCN(C(=O)c2cn(Cc3cncn3CCc3ccccc3Cl)cc2-c2cccc3ccccc23)CC1` [Compound 24, 1-[1-(2-Chloro)phenethyl-1H-imidazol-5-yl]methyl-3-[4-methylpiperazin-1-yl]carbonyl-4-(naphthalen-1-yl)-1H-pyrrole], the IC50 was 2 nM on Ras farnesyl transferase [1], 3 nM on Ras farnesyl transferase [2], 25 nM at Ras farnesyl transferase [3] and 10000 to 50000 nM at Ras farnesyl transferase [4].

`COCCN(C)C(=O)c1cn(Cc2cncn2CCc2cccc(Cl)c2)cc1-c1cccc2ccccc12` [Compound 25, 1-[1-(3-Chloro)phenethyl-1H-imidazol-5-yl]methyl-3-[N-(2-methoxyethyl)-N-methyl]carbamoyl-4-(naphthalen-1-yl)-1H-pyrrole]: the IC50 at Ras farnesyl transferase [1] was 2 nM; on Ras farnesyl transferase [2], 5 nM; at Ras farnesyl transferase [3], 15 nM; on Ras farnesyl transferase [4], 10000 to 50000 nM.

For the compound `CN1CCN(C(=O)c2cn(Cc3cncn3CCc3cccc(Cl)c3)cc2-c2cccc3ccccc23)CC1` [Compound 26, 1-[1-(3-Chloro)phenethyl-1H-imidazol-5-yl]methyl-3-[4-methylpiperazin-1-yl]carbonyl-4-(naphthalen-1-yl)-1H-pyrrole], the IC50 at Ras farnesyl transferase [1] was 2 nM; at Ras farnesyl transferase [2], 3 nM; at Ras farnesyl transferase [3] it was 15 nM; at Ras farnesyl transferase [4], 10000 to 50000 nM.

On to `COCCN(C)C(=O)c1cn(Cc2cncn2CCCc2ccccc2)cc1-c1cccc2ccccc12` [Compound 27, 3-[N-(2-Methoxyethyl)-N-methyl]carbamoyl-4-(naphthalen-1-yl)-1-[1-(3-pheny)propyl-1H-imidazol-5-yl]methyl-1H-pyrrole], for which the IC50 on Ras farnesyl transferase [1] was 6 nM; on Ras farnesyl transferase [2], 5 nM; on Ras farnesyl transferase [3], 25 nM; at Ras farnesyl transferase [4], 10000 to 30000 nM.

Consider `CN1CCN(C(=O)c2cn(Cc3cncn3CCCc3ccccc3)cc2-c2cccc3ccccc23)CC1` [Compound 28], for which the IC50 on Ras farnesyl transferase [1] was 1 nM; on Ras farnesyl transferase [2] it was 2 nM; at Ras farnesyl transferase [3], 20 nM; on Ras farnesyl transferase [4], 10000 to 30000 nM.

Consider `COCCN(C)C(=O)c1cn(Cc2cncn2Cc2ccc3ccccc3c2)cc1-c1cccc2ccccc12` [Compound 29, 3-[N-(2-Methoxyethyl)-N-methyl]carbamoyl-4-(naphthalen-1-yl)-1-[1-(naphthalen-2-yl)methyl-1H-imidazol-5-yl]methyl-1H-pyrrole], for which the IC50 is 2 nM on Ras farnesyl transferase [1], 4 nM on Ras farnesyl transferase [2], 10 nM on Ras farnesyl transferase [3] and 10000 to 20000 nM on Ras farnesyl transferase [4].

Take `CN1CCN(C(=O)c2cn(Cc3cncn3Cc3ccc4ccccc4c3)cc2-c2cccc3ccccc23)CC1` [Compound 30]: the IC50 at Ras farnesyl transferase [1] is 2 nM; at Ras farnesyl transferase [2], 4 nM; at Ras farnesyl transferase [3], 10 nM; on Ras farnesyl transferase [4], 10000 to 20000 nM.

Take `COCCN(C)C(=O)c1cn(Cc2cncn2CCc2cccc3ccccc23)cc1-c1cccc2ccccc12` [Compound 31, 3-[N-(2-Methoxyethyl)-N-methyl]carbamoyl-4-(naphthalen-yl)-1-{1-[2-(naphthalen-1-yl)ethyl]-1H-imidazol-5-yl}methyl-1H-pyrrole]: the IC50 at Ras farnesyl transferase [1] is 2 nM; at Ras farnesyl transferase [2], 5 nM; at Ras farnesyl transferase [3], 12 nM; on Ras farnesyl transferase [4], 10000 to 20000 nM.

As to `CN1CCN(C(=O)c2cn(Cc3cncn3CCc3cccc4ccccc34)cc2-c2cccc3ccccc23)CC1` [Compound 32, 3-[4-Methylpiperazin-1-yl]carbonyl-4-(naphthalen-1-yl)-1-{1-[2-(naphthalen-1-yl)ethyl]-1H-imidazol-5-yl}methyl-1H-pyrrole], the IC50 on Ras farnesyl transferase [1] is 2 nM; on Ras farnesyl transferase [2] it was 3 nM; on Ras farnesyl transferase [3], 15 nM; at Ras farnesyl transferase [4], 10000 to 50000 nM.

Regarding `COCCN(C)C(=O)c1cn(Cc2cncn2CCc2ccc(Br)cc2)cc1-c1cccc2ccccc12` [Compound 33, 1-[1-(4-Bromo)phenethyl-1H-imidazol-5-yl]methyl-3-[N-(2-methoxyethyl)-N-methyl]carbamoyl-4-(naphthalen-1-yl)-1H-pyrrole], the IC50 on Ras farnesyl transferase [1] is 2 nM; on Ras farnesyl transferase [2], 3 nM; at Ras farnesyl transferase [3], 18 nM; on Ras farnesyl transferase [4] it was 10000 to 50000 nM.

With `CN1CCN(C(=O)c2cn(Cc3cncn3CCc3ccc(Br)cc3)cc2-c2cccc3ccccc23)CC1` [Compound 34, 1-[1-(4-Bromo)phenethyl-1H-imidazol-5-yl]methyl-3-[4-methylpiperazin-1-yl]carbonyl-4-(naphthalen-1-yl)-1H-pyrrole], the IC50 on Ras farnesyl transferase [1] is 2 nM; on Ras farnesyl transferase [2], 3 nM; on Ras farnesyl transferase [3], 20 nM; on Ras farnesyl transferase [4] it was 10000 to 50000 nM.

Take `COCCN(C)C(=O)c1cn(Cc2cncn2CCc2ccc(F)cc2)cc1-c1cccc2ccccc12` [Compound 35, 1-[1-(4-Fluoro)phenethyl-1H-imidazol-5-yl]methyl-3-[N-(2-methoxyethyl)-N-methyl]carbamoyl-4-(naphthalen-1-yl)-1H-pyrrole]: the IC50 at Ras farnesyl transferase [1] was 1 nM; on Ras farnesyl transferase [2], 2 nM; on Ras farnesyl transferase [3], 25 nM; at Ras farnesyl transferase [4] it was 10000 to 50000 nM.

As to `CN1CCN(C(=O)c2cn(Cc3cncn3CCc3ccc(F)cc3)cc2-c2cccc3ccccc23)CC1` [Compound 36, 1-[1-(4-Fluoro)phenethyl-1H-imidazol-5-yl]methyl-3-[4-methylpiperazin-1-yl]carbonyl-4-(naphthalen-1-yl)-1H-pyrrole], the IC50 at Ras farnesyl transferase [1] is 1 nM; at Ras farnesyl transferase [2], 2 nM; on Ras farnesyl transferase [3], 25 nM; at Ras farnesyl transferase [4] it was 10000 to 50000 nM.
